# Data: the supplement of paper PMC10307832
# Experiments:
# Assay in all cases: relative viability (nuclei count vs DMSO), 5 days (fraction); higher = more cells survive
# A-427 = test system: A-427
# Procedure, shortened: (§1)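 One day after seeding in 1536-well plates, lung cancer cell lines were dosed by pin tool. Dosing was either single-drug or a fixed anchor-drug dose plus five library-drug doses (not always all listed) in √10 steps. After 5 days, nuclei were stained in one fix-and-stain step and counted on 4× images, and relative viability is the nuclei count of treated wells over that of vehicle wells, given as the median of duplicate plates.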
# NCI-H2228 = test system: NCI-H2228
# Procedure, shortened: as §1
# 201T = test system: 201T
# Procedure, shortened: as §1
# NCI-H596 = test system: NCI-H596
# Procedure, shortened: as §1
# H3255 = test system: H3255
# Procedure, shortened: as §1
# NCI-H23 = test system: NCI-H23
# Procedure, shortened: as §1
# SW 1573 = test system: SW 1573
# Procedure, shortened: as §1
# HCC-44 = test system: HCC-44
# Procedure, shortened: as §1
# NCI-H460 = test system: NCI-H460
# Procedure, shortened: as §1
# LU99A = test system: LU99A
# Procedure, shortened: as §1
# LK-2 = test system: LK-2
# Procedure, shortened: as §1
# LC-2-ad = test system: LC-2-ad
# Procedure, shortened: as §1
# NCI-H727 = test system: NCI-H727
# Procedure, shortened: as §1
# NCI-H1650 = test system: NCI-H1650
# Procedure, shortened: as §1
# PC-14 = test system: PC-14
# Procedure, shortened: as §1
# LCLC-97TM1 = test system: LCLC-97TM1
# Procedure, shortened: as §1
# COR-L23 = test system: COR-L23
# Procedure, shortened: as §1
# LCLC-103H = test system: LCLC-103H
# Procedure, shortened: as §1
# NCI-H1793 = test system: NCI-H1793
# Procedure, shortened: as §1
# NCI-H2347 = test system: NCI-H2347
# Procedure, shortened: as §1
# SW 900 = test system: SW 900
# Procedure, shortened: as §1
structure (smiles),measurement,setting,value
Nc1ccn([C@@H]2O[C@H](CO)[C@@H](O)[C@@H]2O)c(=O)n1 [Cytarabine] + O=C(c1cc(Cc2n[nH]c(=O)c3ccccc23)ccc1F)N1CCN(C(=O)C2CC2)CC1 [Olaparib] (partner 8 µM),relative viability,A-427; first compound 0.005 µM,0.479
same,relative viability,A-427; first compound 0.01581 µM,0.551
same,relative viability,A-427; first compound 0.05 µM,0.304
same,relative viability,A-427; first compound 0.1581 µM,0.223
same,relative viability,A-427; first compound 0.5 µM,0.253
same,relative viability,NCI-H2228; first compound 0.005 µM,0.379
same,relative viability,NCI-H2228; first compound 0.01581 µM,0.203
same,relative viability,NCI-H2228; first compound 0.05 µM,0.19
same,relative viability,NCI-H2228; first compound 0.1581 µM,0.13
same,relative viability,NCI-H2228; first compound 0.5 µM,0.129
same,relative viability,201T; first compound 0.005 µM,0.832
same,relative viability,201T; first compound 0.01581 µM,0.877
same,relative viability,201T; first compound 0.05 µM,0.914
same,relative viability,201T; first compound 0.1581 µM,0.847
same,relative viability,201T; first compound 0.5 µM,0.827
same,relative viability,NCI-H596; first compound 0.005 µM,0.678
same,relative viability,NCI-H596; first compound 0.01581 µM,0.692
same,relative viability,NCI-H596; first compound 0.05 µM,0.591
same,relative viability,NCI-H596; first compound 0.1581 µM,0.549
same,relative viability,NCI-H596; first compound 0.5 µM,0.435
same,relative viability,H3255; first compound 0.005 µM,0.569
same,relative viability,H3255; first compound 0.01581 µM,0.552
same,relative viability,H3255; first compound 0.05 µM,0.495
same,relative viability,H3255; first compound 0.1581 µM,0.526
same,relative viability,H3255; first compound 0.5 µM,0.446
same,relative viability,NCI-H23; first compound 0.005 µM,0.387
same,relative viability,NCI-H23; first compound 0.01581 µM,0.244
same,relative viability,NCI-H23; first compound 0.05 µM,0.227
same,relative viability,NCI-H23; first compound 0.1581 µM,0.121
same,relative viability,NCI-H23; first compound 0.5 µM,0.148
same,relative viability,SW 1573; first compound 0.005 µM,0.513
same,relative viability,SW 1573; first compound 0.01581 µM,0.329
same,relative viability,SW 1573; first compound 0.05 µM,0.384
same,relative viability,SW 1573; first compound 0.1581 µM,0.166
same,relative viability,SW 1573; first compound 0.5 µM,0.108
same,relative viability,HCC-44; first compound 0.005 µM,1.03
same,relative viability,HCC-44; first compound 0.01581 µM,1.05
same,relative viability,HCC-44; first compound 0.05 µM,0.975
same,relative viability,HCC-44; first compound 0.1581 µM,0.896
same,relative viability,HCC-44; first compound 0.5 µM,0.848
same,relative viability,NCI-H460; first compound 0.005 µM,0.355
same,relative viability,NCI-H460; first compound 0.01581 µM,0.367
same,relative viability,NCI-H460; first compound 0.05 µM,0.237
same,relative viability,NCI-H460; first compound 0.1581 µM,0.0662
same,relative viability,NCI-H460; first compound 0.5 µM,0.0537
same,relative viability,LU99A; first compound 0.005 µM,0.307
same,relative viability,LU99A; first compound 0.01581 µM,0.28
same,relative viability,LU99A; first compound 0.05 µM,0.24
same,relative viability,LU99A; first compound 0.1581 µM,0.24
same,relative viability,LU99A; first compound 0.5 µM,0.241
same,relative viability,LK-2; first compound 0.005 µM,0.659
same,relative viability,LK-2; first compound 0.01581 µM,0.5
same,relative viability,LK-2; first compound 0.05 µM,0.316
same,relative viability,LK-2; first compound 0.1581 µM,0.164
same,relative viability,LK-2; first compound 0.5 µM,0.148
same,relative viability,LC-2-ad; first compound 0.005 µM,0.697
same,relative viability,LC-2-ad; first compound 0.01581 µM,0.617
same,relative viability,LC-2-ad; first compound 0.05 µM,0.65
same,relative viability,LC-2-ad; first compound 0.1581 µM,0.58
same,relative viability,LC-2-ad; first compound 0.5 µM,0.474
same,relative viability,NCI-H727; first compound 0.005 µM,0.659
same,relative viability,NCI-H727; first compound 0.01581 µM,0.541
same,relative viability,NCI-H727; first compound 0.05 µM,0.679
same,relative viability,NCI-H727; first compound 0.1581 µM,0.542
same,relative viability,NCI-H727; first compound 0.5 µM,0.566
same,relative viability,NCI-H1650; first compound 0.005 µM,0.638
same,relative viability,NCI-H1650; first compound 0.01581 µM,0.772
same,relative viability,NCI-H1650; first compound 0.05 µM,0.472
same,relative viability,NCI-H1650; first compound 0.1581 µM,0.268
same,relative viability,NCI-H1650; first compound 0.5 µM,0.168
same,relative viability,PC-14; first compound 0.005 µM,0.227
same,relative viability,PC-14; first compound 0.01581 µM,0.252
same,relative viability,PC-14; first compound 0.05 µM,0.241
same,relative viability,PC-14; first compound 0.1581 µM,0.105
same,relative viability,PC-14; first compound 0.5 µM,0.0848
same,relative viability,LCLC-97TM1; first compound 0.005 µM,0.34
same,relative viability,LCLC-97TM1; first compound 0.01581 µM,0.333
same,relative viability,LCLC-97TM1; first compound 0.05 µM,0.183
same,relative viability,LCLC-97TM1; first compound 0.1581 µM,0.126
same,relative viability,LCLC-97TM1; first compound 0.5 µM,0.106
same,relative viability,COR-L23; first compound 0.005 µM,0.305
same,relative viability,COR-L23; first compound 0.01581 µM,0.309
same,relative viability,COR-L23; first compound 0.05 µM,0.275
same,relative viability,COR-L23; first compound 0.1581 µM,0.131
same,relative viability,COR-L23; first compound 0.5 µM,0.124
same,relative viability,LCLC-103H; first compound 0.005 µM,0.717
same,relative viability,LCLC-103H; first compound 0.01581 µM,0.725
same,relative viability,LCLC-103H; first compound 0.05 µM,0.906
same,relative viability,LCLC-103H; first compound 0.1581 µM,0.803
same,relative viability,LCLC-103H; first compound 0.5 µM,0.792
same,relative viability,NCI-H1793; first compound 0.005 µM,0.989
same,relative viability,NCI-H1793; first compound 0.01581 µM,0.847
same,relative viability,NCI-H1793; first compound 0.05 µM,0.887
same,relative viability,NCI-H1793; first compound 0.1581 µM,0.359
same,relative viability,NCI-H1793; first compound 0.5 µM,0.244
same,relative viability,NCI-H2347; first compound 0.005 µM,0.59
same,relative viability,NCI-H2347; first compound 0.01581 µM,0.569
same,relative viability,NCI-H2347; first compound 0.05 µM,0.522
same,relative viability,NCI-H2347; first compound 0.1581 µM,0.538
same,relative viability,NCI-H2347; first compound 0.5 µM,0.493
same,relative viability,SW 900; first compound 0.005 µM,0.899
same,relative viability,SW 900; first compound 0.01581 µM,0.797
same,relative viability,SW 900; first compound 0.05 µM,0.413
same,relative viability,SW 900; first compound 0.1581 µM,0.242
same,relative viability,SW 900; first compound 0.5 µM,0.296
